Columns and labels:
Settings in all cases: 72 h
Caco-2 [1] = assay: cell viability relative to DMSO; higher = less toxic
U2OS [2] = assay: as above
Calu-3 [3] = assay: as above
HepG2 [4] = assay: as above
Vero E6 [5] = assay: as above
Caco-2 [6] = assay: relative viability EC50 (midpoint between 100% and the lowest measured viability); higher = less toxic
U2OS [7] = assay: as above
Calu-3 [8] = assay: as above
HepG2 [9] = assay: as above
Vero E6 [10] = assay: as above
Caco-2 [11] = assay: drug sensitivity score (DSS) for viability; higher = more toxic; extreme values may be limits of the assay
U2OS [12] = assay: as above
Calu-3 [13] = assay: as above
HepG2 [14] = assay: as above
Vero E6 [15] = assay: as above

SMILES | cell viability (Caco-2 [1]; 1 nM) | cell viability (Caco-2 [1]; 10 nM) | cell viability (Caco-2 [1]; 100 nM) | cell viability (Caco-2 [1]; 1000 nM) | cell viability (Caco-2 [1]; 10000 nM) | cell viability (U2OS [2]; 1 nM) | cell viability (U2OS [2]; 10 nM) | cell viability (U2OS [2]; 100 nM) | cell viability (U2OS [2]; 1000 nM) | cell viability (U2OS [2]; 10000 nM) | cell viability (Calu-3 [3]; 1 nM) | cell viability (Calu-3 [3]; 10 nM) | cell viability (Calu-3 [3]; 100 nM) | cell viability (Calu-3 [3]; 1000 nM) | cell viability (Calu-3 [3]; 10000 nM) | cell viability (HepG2 [4]; 1 nM) | cell viability (HepG2 [4]; 10 nM) | cell viability (HepG2 [4]; 100 nM) | cell viability (HepG2 [4]; 1000 nM) | cell viability (HepG2 [4]; 10000 nM) | cell viability (Vero E6 [5]; 1 nM) | cell viability (Vero E6 [5]; 10 nM) | cell viability (Vero E6 [5]; 100 nM) | cell viability (Vero E6 [5]; 1000 nM) | cell viability (Vero E6 [5]; 10000 nM) | relative viability EC50 (Caco-2 [6]) | relative viability EC50 (U2OS [7]) | relative viability EC50 (Calu-3 [8]) | relative viability EC50 (HepG2 [9]) | relative viability EC50 (Vero E6 [10]) | drug sensitivity score (Caco-2 [11]) | drug sensitivity score (U2OS [12]) | drug sensitivity score (Calu-3 [13]) | drug sensitivity score (HepG2 [14]) | drug sensitivity score (Vero E6 [15])
COC(=O)c1c(C)[nH]c(C)c1C(=O)c1ccccc1Cc1ccccc1 | 98.6% | 97.1% | 98.1% | 99.9% | 84.8% | 99.5% | 103% | 87.8% | 102% | 92.1% | 90.1% | 106% | 89.8% | 108% | 90.1% | 99.2% | 94.8% | 109% | 95.8% | 104% | 100% | 101% | 98% | 94.1% | 99.8% | > 10 µM | > 10 µM | > 10 µM | > 10 µM | > 10 µM | 0.3 | 0 | 0 | 0 | 0
O=C(Nc1cc(C(F)(F)F)ccc1O)Nc1cc(C(F)(F)F)ccc1O [NS-1643] | 108% | 101% | 102% | 95% | 88.3% | 99.3% | 100% | 104% | 102% | 96.9% | 102% | 94.7% | 103% | 97.4% | 104% | 95.3% | 105% | 110% | 94.7% | 92.5% | 98.8% | 103% | 100% | 99.1% | 95.1% | > 10 µM | > 10 µM | > 10 µM | > 10 µM | > 10 µM | 0.2 | 0 | 0 | 0 | 0
C[C@@H]1CN(Cc2ccc(F)cc2)[C@@H](C)CN1C(=O)c1cc2c(C(=O)C(=O)N(C)C)cn(C)c2cc1Cl [talmapimod] | 103% | 99.2% | 90.4% | 86.4% | 91.8% | 106% | 101% | 103% | 96.9% | 90.6% | 106% | 101% | 99.8% | 92.9% | 100% | 112% | 108% | 100% | 104% | 104% | 96.1% | 103% | 93.5% | 84.6% | 85% | > 10 µM | > 10 µM | > 10 µM | > 10 µM | > 10 µM | 1.5 | 0 | 0 | 0 | 2.1
COc1ccc2c(c1)C(C(=O)N(Cc1ccc(N(C)C)cc1)c1ccc(C(C)C)cc1)CCC2 (stereo not given) | 105% | 96.3% | 105% | 95.9% | 75.5% | 102% | 100% | 102% | 98.2% | 100% | 90.3% | 98.9% | 96.9% | 88% | 107% | 99.8% | 109% | 98.5% | 109% | 102% | 101% | 103% | 99.3% | 103% | 105% | > 10 µM | > 10 µM | > 10 µM | > 10 µM | > 10 µM | 1.5 | 0 | 0 | 0 | 0
CC(C)(C)OC(=O)N[C@H]1CCCCC/C=C\[C@@H]2C[C@@]2(C(=O)NS(=O)(=O)C2CC2)NC(=O)[C@@H]2C[C@@H](OC(=O)N3Cc4cccc(F)c4C3)CN2C1=O [danoprevir] | 98.1% | 98.5% | 98.4% | 101% | 83% | 104% | 101% | 98.9% | 99.4% | 98.2% | 107% | 103% | 85.1% | 107% | 102% | 109% | 104% | 94.2% | 92% | 95.1% | 106% | 98.8% | 98.6% | 103% | 103% | > 10 µM | > 10 µM | > 10 µM | > 10 µM | > 10 µM | 0.3 | 0 | 0 | 0 | 0
CN(C)C/C=C/C(=O)Nc1cccc(C(=O)Nc2cccc(Nc3ncc(Cl)c(-c4c[nH]c5ccccc45)n3)c2)c1 [THZ2] | 97.8% | 99.9% | 98.4% | 80.9% | 25.6% | 97.8% | 102% | 96.6% | 10.2% | 8.3% | 103% | 104% | 83.1% | 33.5% | 42.9% | 114% | 89.4% | 44.7% | 3.5% | 2.7% | 104% | 103% | 103% | 95% | 6.5% | 1.53 µM | 0.303 µM | 0.154 µM | 0.0771 µM | 2.75 µM | 7.1 | 16.8 | 14.9 | 24.2 | 5.9
CC(O)(C(=O)Nc1ccc(S(=O)(=O)c2ccccc2)cc1)C(F)(F)F (stereo not given) | 94.9% | 90.6% | 97% | 107% | 95.9% | 99.2% | 100% | 97.4% | 104% | 102% | 101% | 98.1% | 99.8% | 82.2% | 89.1% | 100% | 90.8% | 96.4% | 102% | 109% | 98.4% | 93.1% | 97.9% | 89.6% | 95.3% | > 10 µM | > 10 µM | > 10 µM | > 10 µM | > 10 µM | 0 | 0 | 2.1 | 0 | 0
CNC(=O)c1cnn(-c2nc(N)c3ncn([C@@H]4O[C@H](CO)[C@@H](O)[C@H]4O)c3n2)c1 [regadenoson] | 101% | 97.4% | 91.1% | 94.3% | 108% | 95.9% | 92.1% | 102% | 99% | 104% | 91.7% | 104% | 106% | 102% | 103% | 102% | 105% | 102% | 90.7% | 117% | 101% | 93.7% | 86.2% | 103% | 111% | > 10 µM | > 10 µM | > 10 µM | > 10 µM | > 10 µM | 0 | 0 | 0 | 0 | 0
NC[C@@H]1CC[C@@H](N)[C@@H](O[C@H]2[C@H](O)[C@@H](O[C@H]3O[C@H](CO)[C@@H](O)[C@H](N)[C@H]3O)[C@H](N)C[C@@H]2N)O1 [dibekacin] | 96% | 94.4% | 101% | 93.5% | 106% | 104% | 97.9% | 101% | 98% | 104% | 101% | 91.9% | 114% | 101% | 95% | 96.5% | 101% | 89.1% | 102% | 94.5% | 103% | 103% | 98.1% | 101% | 101% | > 10 µM | > 10 µM | > 10 µM | > 10 µM | > 10 µM | 0 | 0 | 0 | 0 | 0
O=C(NCCN1CCC(n2c(=O)[nH]c3ccccc32)CC1)c1cc2cc(F)ccc2[nH]1 [FIPI] | 95.7% | 101% | 100% | 101% | 106% | 97% | 94% | 100% | 97.4% | 94.8% | 92.2% | 101% | 99.8% | 98% | 96.8% | 90.7% | 110% | 98.2% | 93.7% | 91.1% | 95% | 95.9% | 99% | 96.6% | 103% | > 10 µM | > 10 µM | > 10 µM | > 10 µM | > 10 µM | 0 | 0 | 0 | 0 | 0
O=C(Nc1cccc(C(F)(F)F)c1)Nc1ccc(Br)cc1-c1nnn[nH]1 [NS-3623] | 98% | 99.8% | 100% | 97.8% | 101% | 99.6% | 97.8% | 97.6% | 99.2% | 96.2% | 107% | 92.8% | 95.3% | 102% | 100% | 102% | 102% | 92.5% | 98.7% | 112% | 93.3% | 101% | 92.4% | 94.6% | 110% | > 10 µM | > 10 µM | > 10 µM | > 10 µM | > 10 µM | 0 | 0 | 0 | 0 | 0
CN1CCN(C(c2ccccc2)c2ccccc2)CC1 [cyclizine] | 95.7% | 101% | 99.9% | 94.9% | 103% | 105% | 94% | 101% | 95.6% | 97.5% | 104% | 98.9% | 85.8% | 102% | 99.9% | 94.7% | 99.1% | 103% | 104% | 97.6% | 97.7% | 96.3% | 93.7% | 96% | 102% | > 10 µM | > 10 µM | > 10 µM | > 10 µM | > 10 µM | 0 | 0 | 0 | 0 | 0
O=P(O)(O)C(O)(Cc1cnc2ccccn12)P(=O)(O)O [minodronic-acid] | 98.1% | 103% | 96.4% | 103% | 98.6% | 100% | 97.6% | 95.9% | 102% | 102% | 98.1% | 95.1% | 104% | 96.5% | 106% | 99.2% | 102% | 106% | 85.5% | 101% | 106% | 102% | 98.6% | 100% | 98.1% | > 10 µM | > 10 µM | > 10 µM | > 10 µM | > 10 µM | 0 | 0 | 0 | 0 | 0
c1ccc(Oc2cccnc2)cc1 [CI-844] | 96% | 97.6% | 90.4% | 93.1% | 93.2% | 100% | 103% | 94.9% | 97.2% | 96.1% | 104% | 101% | 89.9% | 94.1% | 106% | 102% | 103% | 94.3% | 97.4% | 106% | 101% | 103% | 100% | 99.8% | 98.7% | > 10 µM | > 10 µM | > 10 µM | > 10 µM | > 10 µM | 0 | 0 | 0 | 0 | 0

From the supplement of paper PMC13380429
